The values below come from PMC8522630 (Cell, 2021).

Assay [1] deals with antigen-specific CD8 T cells in KP lung adenocarcinoma. The class given is in vivo, mouse. The following applies: 5–6 weeks; for CD8 T cell response magnitude, antigen expressed alone: LucA (mALG8) or LucL (mLAMA4); for proportion of TCF1+ progenitor cells, antigens co-expressed / CD8 T cell response magnitude, antigens co-expressed: LucAL; for CD8 T cell response magnitude, antigens co-expressed: compared to the single-antigen setting.

The target in the next assay is H-2K^b (Mus musculus, UniProt P01901, A160C/Y105C). Briefly: Differential Scanning Fluorimetry of pMHC thermal melting. The format is binding. The following applies: DSF, 50 mM HEPES pH 7.5, SYPRO Orange; Tm averaged from 3 experiments; compared to mLAMA4. (DSF heats the sample and reads unfolding from a dye or from intrinsic fluorescence.)
Chain of H-2K^b (P01901 22-295 Y105C/A160C limits assumed): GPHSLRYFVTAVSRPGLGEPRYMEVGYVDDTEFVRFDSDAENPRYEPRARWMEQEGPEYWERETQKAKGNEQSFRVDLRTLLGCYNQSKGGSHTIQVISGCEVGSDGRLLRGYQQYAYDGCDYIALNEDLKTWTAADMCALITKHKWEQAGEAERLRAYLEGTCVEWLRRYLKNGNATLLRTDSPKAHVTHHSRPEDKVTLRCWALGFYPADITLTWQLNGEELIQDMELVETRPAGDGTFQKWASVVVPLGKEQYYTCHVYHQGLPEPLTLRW
Chain of H-2K^b (P61769 21-119 partner): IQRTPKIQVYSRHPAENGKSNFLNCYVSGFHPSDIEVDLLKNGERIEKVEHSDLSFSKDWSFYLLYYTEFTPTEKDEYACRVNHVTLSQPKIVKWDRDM

ITYTWTRL [mALG8]: in assay [1], the “CD8 T cell response magnitude, antigen expressed alone” value is reported as “responses of equivalent magnitude”; the “proportion of TCF1+ progenitor cells, antigens co-expressed” value is given as “increased for both responses (Figure S3M), trending towards greater enrichment for the mALG8 response”; the “CD8 T cell response magnitude, antigens co-expressed” value is “neither response became dominant in terms of T cell expansion, but both decreased in magnitude compared to the single-antigen setting”. Besides, on H-2K^b, the “pMHC complex stability (Koff), relative to mLAMA4” value was “similar, but slightly lower affinity and stability”.
For the sequence VGFNFRTL [mLAMA4], in assay [1], the “CD8 T cell response magnitude, antigen expressed alone” value is “responses of equivalent magnitude”; the “proportion of TCF1+ progenitor cells, antigens co-expressed” value is given as “increased for both responses”; the “CD8 T cell response magnitude, antigens co-expressed” value is recorded as “neither response became dominant in terms of T cell expansion, but both decreased in magnitude compared to the single-antigen setting”.
